Results on 5 compounds are retold here after patent US7674771B2, “Antimicrobial peptides and utilization of the same” (Toagosei Co., Ltd, priority 2003, dated 2010).

Like-named read-outs stand apart in the source and are kept apart here. Ends that are not written are not given here.

Experiment [1] deals with methicillin-resistant Staphylococcus aureus (MRSA, No. 164 strain). The experiment is described as follows: Treatment effect test on mice infected by MRSA, bacterial count in intestine content. To be noted: oral 100 mg/kg; for MRSA bacterial quantity in intestine content, administered group 1 / MRSA bacterial quantity in intestine content, administered group 2 / MRSA bacterial quantity in intestine content, administered group 3 / MRSA bacterial quantity in intestine content, administered group 4 / MRSA bacterial quantity in intestine content, administered group 5 / MRSA bacterial quantity in intestine content, Average: mice; for MRSA bacterial quantity in intestine content, administered group 1 / MRSA bacterial quantity in intestine content, administered group 2 / MRSA bacterial quantity in intestine content, administered group 3 / MRSA bacterial quantity in intestine content, administered group 4 / MRSA bacterial quantity in intestine content, administered group 5: approximately 24 hours after administration; for MRSA bacterial quantity in intestine content, Average: average of groups 1-5. In kind it is in vivo. As to the method:
The following test was performed to evaluate the treatment effect on mice infected by bacterial (MRSA) of sample 22 obtained by synthesis.
Mice (ICR, SLC, male, 5 weeks old) were prepared by rearing on drinking water mixed with amphotericin B (AMPH: product of Bristol-Myers Company) and tetracycline, such that their concentrations are 10 μg/mL (AMPH) and 2000 μg/mL (tetracycline) respectively, a week before the start of the test, and the immunity of the mice was weaken by administrating 200 mg/kg amount of cyclophosphamide into the abdominal for 3 days from the fourth day prior to the test.
Bacterial suspension prepared by suspending methicillin-resistant Staphylococcus aureus (MRSA, No. 164 strain) in 10% (w/v) of mucin solution was orally administered to the mice at a bacterial administration quantity of 10^8 cells/mouse, thereby eliciting MRSA infection.
One hour after the bacterial inoculation, antimicrobial agent prepared by suspending the test material (therefore polypeptide of sample 22) in 10% of gum arabic solution was orally administered. The administered quantity of suspension was 100 mg/kg. A total of 5 test groups, with each test group containing 5 test mice, were tested. For comparison, antimicrobial agent prepared by suspending vancomycin in 10% of gum arabic solution was orally administered to the test mice under the same conditions.
After the drug administration, test mice were slaughtered approximately 24 hours later, and the contents in the intestine extracted, and the bacterial count of MRSA examined. More specifically, 1.8 mL of physiological saline was added to and mixed with approximately 0.2 g of intestine contents. A fixed quantity of such mixture was smeared on mannitol agar medium (product of Nissui Pharmaceutical Co., Ltd) including gentamicin (GM) with a concentration of […], and cultured for 3 days at 37° C.

For experiment [2], the system named is Escherichia coli IFO 3972. The experiment is described as follows: MIC by liquid medium dilution technique, 96-well microplate, gram-negative bacteria. In kind it is cell-based. As to conditions: for Antimicrobial Activities (MIC) E. coli: IFO 3972, 24 h. The protocol: (§1) Regarding the antimicrobial peptide (samples 1 to 20) related to the present invention, the antimicrobial activities (minimum inhibitory concentration: MIC) with respect to gram-negative bacteria (Escherichia coli IFO 3972) and gram-positive bacteria (Staphylococcus aureus IFO 12732) were determined by a liquid medium dilution technique using a 96-well microplate.
(§2) First, a drug (synthesized polypeptide) solution having a concentration of 40 times of the highest test concentration was prepared using sterile distilled water, and liquid-bouillon mediums (more specifically, “Mueller Hinton Broth” manufactured by DIFCO) including cation and having drug concentrations of 100, 50, 25, 12.5, 6.3, 3.1, 1.6 and 0.8 μM were respectively produced. The cation included was prepared as follows: dissolving 3.68 g of CaCl2.2H2O in 100 mL of purified water (10 mg.Ca^2+/mL), and thereafter adding 500 μL thereof into 100 mL of Mueller Hinton Broth; and dissolving 8.36 g of MgCl2.6H2O in 100 mL of purified water (10 mg.Mg^2+/mL), and thereafter adding 250 μL thereof into 100 mL of Mueller Hinton Broth. Thereafter, the produced liquid-bouillon mediums including the drug of each concentration were then fed to the 96-well microplate at […] a time.
(§3) At the same time, test bacteria cultured for 18 hours at 37° C. on an agar plate (“Muller Hinton Agar” manufactured by DIFCO) were gathered by scratching with a loop, and then suspended in a sterilized physiological saline. Bacterial suspension 5 μL prepared at an equivalent of 2×10^7 cells/mL was respectively inoculated (number of bacteria to be tested: approximately 1×10^6 cells/mL) onto the drug solution and fed to each well of the above-described microplate. After inoculation, the microplate was then incubated in an incubator at 37° C., and the presence of bacteria was evaluated based on the turbidity 24 hours later. The minimum drug concentration (polypeptide concentration), in which an increased in turbidity caused by bacteria was not detected at the time of measurement, was defined as MIC (minimum inhibitory concentration) (unit: μM) in the present embodiment. In addition, MIC were determined in the same manner using polymyxin B as a comparison.

Experiment [3] deals with Staphylococcus aureus IFO 12732. In kind it is cell-based. To be noted: IFO 12732, 24 h. The protocol: as §1, §2, §3
In experiment [4] the test system is S. aureus. In kind it is cell-based, Staphylococcus aureus. As to the method:
as §2, §3
Next, the antimicrobial activities (MIC) against gram-positive bacteria (S. aureus) in the presence of serum were tested with the same method as Example 2. […] Thereafter, the produced liquid-bouillon mediums including the drug and the serum of each concentration were then fed to the 96-well microplate at […] a time, and MIC were determined by the method same as Example 2. Sample X in the table is a mixture of sample 1 and sample 16 based on a mass ratio of 1:1. “-” in the table indicate “untested”.

For experiment [5], the system named is Aspergillus niger IFO 6341. In kind it is cell-based. As to the method: (§4) Antimicrobial activity against fungi (Aspergillus niger IFO 6341) of the antimicrobial peptides related to the present invention was tested according to a general antimycotic susceptibility test as follows.
More specifically, a slant or plate medium (“potato dextrose agar” medium manufactured by DIFCO was used typically) adhered with spores (conidia) was prepared in advance, and A. niger (IFO 6341; JIS test strain) were gathered from the medium by scratching the medium surface 4 to 5 times from bottom up with a 1 μL disposable loop and suspended in 25 mL of PBS (free of Mg, Ca) solution containing 0.05% of surfactant (Tween® 80). Thereafter, pipetting was performed using a measuring pipette or the like such that clusters of black spores disappeared completely. The spore concentration of the spore suspension prepared by such method was determined using a hemocytometer while the above-described surfactant containing PBS solution was being diluted accordingly, thereby deriving a spore suspension having a spore concentration of approximately 2.5×10^5 spores/mL.
At the same time, the above-described two polypeptides (samples 1, 3) and benzalkonium chloride serving as a comparison for antimycotic activity were dissolved in 10 mM of HEPES buffer (pH7.0) respectively to prepare stock solutions with a 2.0 mg/mL drug concentration. These were sequentially diluted to prepare various kinds of test drugs with drug (each polypeptide or benzalkonium chloride) concentrations of 400, 200, 100, 50, 25, 5 and 0.5 μg/mL.
A spore germination inhibition test and a spore growth inhibition test were performed using the above-prepared drugs and spore suspension as follows.
First, each of the above-described drugs was fed to the 96-well microplate at 40 μL a time for the spore germination inhibition test. The surplus drugs were stored in a refrigerator (4° C.) to be used for the spore growth inhibition test to be perform at a later date.
(§5) Next, a test fungus suspension was prepared by adding, with respect to 10 part by mass of the above-described spore suspension, 2 parts by mass of Alamar Blue fluorescence reagent (product of Wako Pure Chemical Industries, Ltd.) and 8 parts by mass of RPMI1640 medium containing 0.165M of MOPS, which was prepared by dissolving 5.2 g of RPMI1640 (product of Irvine Scientific) and 1.0 g of NaHCO3 in 450 mL of sterile distilled water and thereafter adding 17.12 g of MOPS and stirring, and adjusting the pH value to 7.0 by adding NaOH, and then filling up to 500 mL by adding sterile distilled water. Then, the fungus suspension was fed at 160 μL a time to the wells in which the above-described drugs were added. In addition, empty wells in which no drug was added were also fed at 160 μL a time for spore growth inhibition test. After feeding, it was cultured under a humid environment for 16 hours in an incubator at 30° C.
Twenty-four hours and 48 hours after the beginning of culturing, the colour of the mediums in the wells used for spore germination inhibition test and the wells for spore growth inhibition test were observed. Here, those in which the Alamar Blue included within the medium remain blue (oxidized form) were evaluated as positive of antimicrobial activity positive, and those that are pink (reduced form) were evaluated as negative of antimicrobial activity. Moreover, the smallest drug concentration recognized as oxidized form (blue color) was served as MIC (minimum growth inhibitory concentration) in the spore germination inhibition test and the spore growth inhibition test related to the present example.

The test system of experiment [6] is Aspergillus niger IFO 6341. In kind it is cell-based. As to the method: as §4
More specifically, a slant or plate medium (“potato dextrose agar” medium manufactured by DIFCO was used typically) adhered with spores (conidia) was prepared in advance, and A. niger (IFO 6341; JIS test strain) were gathered from the medium by scratching the medium surface 4 to 5 times from bottom up with a 1 μL disposable loop and suspended in 25 mL of PBS (free of Mg, Ca) solution containing 0.05% of surfactant (Tween® 80). Thereafter, pipetting was performed using a measuring pipette or the like such that clusters of black spores disappeared completely. The spore concentration of the spore suspension prepared by such method was determined using a hemocytometer while the above-described surfactant containing PBS solution was being diluted accordingly, thereby deriving a spore suspension having a spore concentration of approximately 2.5×10^5 spores/mL. […]
as §5, with “Then, the fungus suspension was fed at 160 μL a time to the wells in which the above-described drugs were added. In addition, empty wells in which no drug was added were also fed at 160 μL a time for spore growth inhibition test. After feeding, it was cultured under a humid environment for 16 hours in an incubator at 30° C.” left out
Sixteen hours after the beginning of culturing, the plate was retrieve from the incubator, and the presence of generation (growth) of mycelia in each well (well that had already been fed exclusively by the above-described test drug) used for spore growth inhibition test was evaluated with a microscope. […]
This is another data set of the same source.

For the compound `CN[C@H](CC(C)C)C(=O)N[C@H]1C(=O)N[C@@H](CC(N)=O)C(=O)N[C@H]2C(=O)N[C@H]3C(=O)N[C@H](C(=O)N[C@H](C(=O)O)c4cc(O)cc(O)c4-c4cc3ccc4O)[C@H](O)c3ccc(c(Cl)c3)Oc3cc2cc(c3O[C@@H]2O[C@H](CO)[C@@H](O)[C@H](O)[C@H]2O[C@H]2C[C@](C)(N)[C@H](O)[C@H](C)O2)Oc2ccc(cc2Cl)[C@H]1O` [Vancomycin, vancomycin, reference compound], in experiment [1], the “MRSA bacterial quantity in intestine content, administered group 1” value was 8 ×10^3 cells/g; the “MRSA bacterial quantity in intestine content, administered group 2” value is 10 ×10^3 cells/g; the “MRSA bacterial quantity in intestine content, administered group 3” value is reported as 43 ×10^3 cells/g; the “MRSA bacterial quantity in intestine content, administered group 4” value was 22 ×10^3 cells/g. In experiment [1], the “MRSA bacterial quantity in intestine content, administered group 5” value is given as 26 ×10^3 cells/g and the “MRSA bacterial quantity in intestine content, Average” value is 22 ×10^3 cells/g.
Take “H-RIRKKLRLMWWML-NH2 [sample 3, RIRKKLRLMWWML-CONH2]”: the “Antimicrobial Activities (MIC) E. coli” value in experiment [2] worked out at 6.3 µM. Moreover, the “Antimicrobial Activities (MIC) S. aureus” value in experiment [3] was 3.1 µM. The “Antimicrobial Activities (MIC) against S. aureus, horse serum concentration 10%” value in experiment [4] stood at 3.1 µM. In experiment [5] (IFO 6341, 24 h), the “MIC against A. niger, spore germination inhibition test after 24 hours” value stood at 100 µg/mL. Moreover, in experiment [5] (IFO 6341, 48 h), the “MIC against A. niger, spore germination inhibition test after 48 hours” value came to 100 µg/mL. For the same compound, the “MIC against A. niger, spore growth inhibition test after 24 hours” value in experiment [6] (IFO 6341, 24 h) was 100 µg/mL.
As to “H-RKKKRKVLMWWMLR-NH2 [sample 1, RKKKRKVLMWWMLR-CONH2]”, the “Antimicrobial Activities (MIC) E. coli” value in experiment [2] stood at 6.3 µM. The “antimicrobial activity against E. coli, in words” value in experiment [2] (comparison stated in text on Table 2) is “higher antimicrobial activities”. In addition, the “Antimicrobial Activities (MIC) S. aureus” value in experiment [3] amounted to 3.1 µM. Moreover, in experiment [4], the “Antimicrobial Activities (MIC) against S. aureus, horse serum concentration 10%” value stood at 3.1 µM; the “Antimicrobial Activities (MIC) against S. aureus, horse serum concentration 20%” value was 3.1 µM; the “Antimicrobial Activities (MIC) against S. aureus, horse serum concentration 50%” value turned out to be 3.1 µM. The “MIC against A. niger, spore germination inhibition test after 24 hours” value in experiment [5] (IFO 6341, 24 h) was 50 µg/mL. Further, the “MIC against A. niger, spore germination inhibition test after 48 hours” value in experiment [5] (IFO 6341, 48 h) was 50 µg/mL. Besides, the “MIC against A. niger, spore growth inhibition test after 24 hours” value in experiment [6] (IFO 6341, 24 h) amounted to 100 µg/mL.
Regarding “LKRKLQRVVYWLL-CONH2 (LKRKLQRVVYWLL-NH2) [sample 22]”, in experiment [1], the “MRSA bacterial quantity in intestine content, administered group 1” value was 36 ×10^3 cells/g; the “MRSA bacterial quantity in intestine content, administered group 2” value is listed as 35 ×10^3 cells/g; the “MRSA bacterial quantity in intestine content, administered group 3” value is listed as 30 ×10^3 cells/g; the “MRSA bacterial quantity in intestine content, administered group 4” value is 16 ×10^3 cells/g. In experiment [1], the “MRSA bacterial quantity in intestine content, administered group 5” value was 26 ×10^3 cells/g and the “MRSA bacterial quantity in intestine content, Average” value was 29 ×10^3 cells/g. For the same compound, the “treatment effect on MRSA-infected mice, in words” value in experiment [1] (compared with vancomycin) is “exhibited the same effect as the drug including vancomycin”.
In the case of “benzalkonium chloride [reference compound]”, the “MIC against A. niger, spore germination inhibition test after 24 hours” value in experiment [5] (after 24 hours) is 25 µg/mL. In experiment [5] (after 48 hours), the “MIC against A. niger, spore germination inhibition test after 48 hours” value came out at 25 µg/mL. In addition, the “MIC against A. niger, spore growth inhibition test after 24 hours” value in experiment [6] (after 24 hours) worked out at 25 µg/mL.
